Entries after “also recorded” stand apart in the source; their conditions may differ. Where two headings read alike, the source gives them in different places.
Experiments:
human TLR2 = human TLR2 (Homo sapiens (Human), UniProt O60603); assay: human TLR2-specific NF-κB reporter gene assay (HEK-Blue cells); assay type: cell-based
Source text: (§1) The induction of NF-κB in a TLR2-specific reporter gene assay was quantified using HEK-BLUE™ cells as previously described (Wu, W. et al., J. Med. Chem. 2010, 53, 3198-3213). HEK293 cells stably transfected with either human TLR2 or murine TLR2 and alkaline phosphatase (sAP) were obtained from InvivoGen (San Diego, Calif.), and were maintained in HEK-BLUE™ Selection medium containing zeocin and normocin. Stable expression of secreted alkaline phosphatase (sAP) under control of NF-κB promoters is inducible by TLR2 agonists, and extracellular sAP in the supernatant is proportional to NF-κB induction. HEK-Blue cells were incubated at a density of ˜10^5 cells/mL in a volume of 80 μL/well, in 384-well, flat-bottomed, cell culture-treated microtiter plates until confluency was achieved, and then stimulated with serially-diluted aliquots of compounds for 12 h. sAP was assayed spectrophoto-metrically using an alkaline phosphatase-specific chromogen (present in the HEK-detection medium as supplied by the vendor) at 620 nm. For antagonism assays, HEK-Blue cells were incubated at a density of ˜10^5 cells/mL in a volume of 80 μL/well and stimulated with either PAM2CS (1 μg/mL) or lipoteichoic acid (1 μg/mL) in the presence of graded concentrations of the test compounds as described for TLR7 previously (Shukla, N. M.; et al., Bioorg. Med. Chem. Lett. 2009, 19, 2211-2214; Shukla, N. M. et al., Bioorg. Med. Chem. 2011, 19, 3801-3811).

Aqueous solubility = assay type: physicochemical
murine TLR2 = murine TLR2 (Mus musculus (Mouse), UniProt Q9QUN7); assay: murine TLR2-specific NF-κB reporter gene assay (HEK-Blue cells); assay type: cell-based
Source text: as §1, with “For antagonism assays, HEK-Blue cells were incubated at a density of ˜10^5 cells/mL in a volume of 80 μL/well and stimulated with either PAM2CS (1 μg/mL) or lipoteichoic acid (1 μg/mL) in the presence of graded concentrations of the test compounds as described for TLR7 previously (Shukla, N. M.; et al., Bioorg. Med. Chem. Lett. 2009, 19, 2211-2214; Shukla, N. M. et al., Bioorg. Med. Chem. 2011, 19, 3801-3811).” left out

[1] = Stability of aqueous stocks; assay type: physicochemical
[2] = tested on: anti-bovine α-lactalbumin IgG responses; assay: Rabbit immunization with bovine α-lactalbumin, antigen-specific IgG ELISA; assay type: in vivo
Description: All experiments were performed in accordance with institutional guidelines (University of Kansas IACUC permit #119-06) which specifically approved this study. All antigen/adjuvant preparations were entirely aqueous; no liposomal or emulsifying agents were used. Cohorts of adult female New Zealand White rabbits (n=4) were immunized intramuscularly in the flank region with (a) 100 μg of bovine α-lactalbumin in 0.2 mL saline, or (b) 100 μg of bovine α-lactalbumin plus 100 μg of compound 25 in 0.2 mL saline, or (d) 100 μg of bovine α-lactalbumin plus 100 μg of dual TLR2-agonistic PAM2CSK4 (control). Pre-immune test-bleeds were first obtained via venipuncture of the marginal vein of the ear. […] A final test-bleed was performed via the marginal vein of the ear on Day 38. Sera were stored at −80° C. until used.
Bovine α-lactalbumin-specific ELISAs were performed in 384-well format using automated liquid handling methods as described (Shukla, N. M. et al. Bioorg. Med. Chem. Lett. 2011, 21, 3232-3236). Examination of the affinity of antigen-specific IgG using chaotropic ELISA (Pullen, G. R. et al. J. Immunol. Methods 1986, 86, 83-87 and Macdonald, R. A. et al. J. Immunol. Methods 1988, 106, 191-194). […] Plates were then read at 450 nm using a SpectraMax M4 device (Molecular Devices, Sunnyvale, Calif.).

TLR7 = TLR7 (Homo sapiens (Human), UniProt Q9NYK1); assay: primary human TLR-specific reporter gene assay, TLR7 cell line; assay type: cell-based; settings: relative to parent compounds
[3] = human TLR2-specific reporter gene assay
[4] = human TLR2-specific reporter gene assay, ND = no activity detected at 10 μM, read-out: TLR2-Agonistic Activity (EC50 in nM)

murine TLR2, sequence (Q9QUN7 25-784): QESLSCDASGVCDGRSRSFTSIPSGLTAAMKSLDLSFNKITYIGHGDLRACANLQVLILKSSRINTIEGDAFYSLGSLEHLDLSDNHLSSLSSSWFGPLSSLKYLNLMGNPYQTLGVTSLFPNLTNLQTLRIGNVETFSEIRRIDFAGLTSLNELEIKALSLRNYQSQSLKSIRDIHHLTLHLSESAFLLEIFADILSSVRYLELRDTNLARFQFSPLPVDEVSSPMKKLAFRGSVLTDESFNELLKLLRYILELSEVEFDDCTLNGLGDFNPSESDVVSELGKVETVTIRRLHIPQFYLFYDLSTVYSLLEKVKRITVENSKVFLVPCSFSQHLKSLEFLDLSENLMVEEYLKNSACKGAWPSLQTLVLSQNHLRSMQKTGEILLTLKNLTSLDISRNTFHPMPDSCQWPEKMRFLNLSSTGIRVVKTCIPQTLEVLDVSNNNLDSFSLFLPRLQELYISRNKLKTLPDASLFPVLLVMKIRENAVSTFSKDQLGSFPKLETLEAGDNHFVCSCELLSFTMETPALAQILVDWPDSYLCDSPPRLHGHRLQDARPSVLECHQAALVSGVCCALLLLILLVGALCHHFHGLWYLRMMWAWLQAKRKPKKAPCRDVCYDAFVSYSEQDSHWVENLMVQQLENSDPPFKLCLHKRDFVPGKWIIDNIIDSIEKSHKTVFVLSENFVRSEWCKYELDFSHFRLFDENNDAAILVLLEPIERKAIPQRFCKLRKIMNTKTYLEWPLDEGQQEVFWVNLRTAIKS
human TLR2, sequence (O60603 21-784): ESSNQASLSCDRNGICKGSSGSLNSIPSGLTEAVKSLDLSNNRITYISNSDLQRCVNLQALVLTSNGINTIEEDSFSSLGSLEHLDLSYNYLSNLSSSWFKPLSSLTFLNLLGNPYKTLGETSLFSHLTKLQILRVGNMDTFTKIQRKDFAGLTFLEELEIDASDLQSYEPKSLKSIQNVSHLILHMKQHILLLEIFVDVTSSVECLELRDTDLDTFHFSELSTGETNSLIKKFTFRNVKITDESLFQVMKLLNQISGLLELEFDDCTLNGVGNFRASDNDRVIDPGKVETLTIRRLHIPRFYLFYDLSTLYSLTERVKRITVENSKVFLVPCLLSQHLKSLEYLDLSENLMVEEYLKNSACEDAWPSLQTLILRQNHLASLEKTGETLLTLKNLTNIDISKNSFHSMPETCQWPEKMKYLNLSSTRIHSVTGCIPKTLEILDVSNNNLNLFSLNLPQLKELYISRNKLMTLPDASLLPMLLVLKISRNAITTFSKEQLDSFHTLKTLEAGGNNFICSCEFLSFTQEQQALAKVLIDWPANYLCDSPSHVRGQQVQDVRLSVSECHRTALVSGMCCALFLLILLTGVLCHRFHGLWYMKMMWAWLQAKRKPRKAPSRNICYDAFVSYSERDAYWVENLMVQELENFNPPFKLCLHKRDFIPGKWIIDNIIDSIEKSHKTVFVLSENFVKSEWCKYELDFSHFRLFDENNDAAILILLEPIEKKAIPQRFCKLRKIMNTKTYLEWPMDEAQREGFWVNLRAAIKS
TLR7, sequence (Q9NYK1 27-1049): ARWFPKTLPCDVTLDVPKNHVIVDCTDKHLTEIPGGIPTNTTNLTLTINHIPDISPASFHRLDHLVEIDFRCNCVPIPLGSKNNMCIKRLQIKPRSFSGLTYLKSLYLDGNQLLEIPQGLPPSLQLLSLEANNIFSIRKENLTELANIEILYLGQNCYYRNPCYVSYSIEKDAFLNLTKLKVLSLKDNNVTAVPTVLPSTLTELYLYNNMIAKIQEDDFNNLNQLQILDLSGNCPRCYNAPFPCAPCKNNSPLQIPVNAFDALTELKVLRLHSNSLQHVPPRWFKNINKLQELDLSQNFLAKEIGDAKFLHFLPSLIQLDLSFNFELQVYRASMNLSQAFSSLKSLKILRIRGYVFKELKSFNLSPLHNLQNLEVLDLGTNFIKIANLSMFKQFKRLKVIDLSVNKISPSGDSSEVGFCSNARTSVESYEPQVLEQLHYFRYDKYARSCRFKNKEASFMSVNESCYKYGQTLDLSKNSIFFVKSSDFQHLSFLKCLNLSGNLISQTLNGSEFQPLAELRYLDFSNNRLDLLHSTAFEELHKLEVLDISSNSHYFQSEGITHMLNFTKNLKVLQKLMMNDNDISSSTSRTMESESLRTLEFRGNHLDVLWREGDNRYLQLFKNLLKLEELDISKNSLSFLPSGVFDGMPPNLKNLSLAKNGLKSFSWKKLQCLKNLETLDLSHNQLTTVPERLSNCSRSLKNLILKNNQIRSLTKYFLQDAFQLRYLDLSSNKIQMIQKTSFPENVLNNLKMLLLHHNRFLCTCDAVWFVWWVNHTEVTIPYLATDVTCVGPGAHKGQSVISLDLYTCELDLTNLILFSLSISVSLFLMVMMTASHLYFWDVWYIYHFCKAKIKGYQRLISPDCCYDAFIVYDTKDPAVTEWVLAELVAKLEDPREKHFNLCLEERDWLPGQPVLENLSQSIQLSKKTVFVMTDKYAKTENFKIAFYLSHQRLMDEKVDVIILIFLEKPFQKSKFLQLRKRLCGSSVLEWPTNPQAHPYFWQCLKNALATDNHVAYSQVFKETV

Compound | EC50 (human TLR2; [4]) | also measured
CCCCCCCCCCCCCCCC(=O)OCCSC[C@H](N)C(=O)N[C@@H](CO)C(=O)OC [Compound 6d] | – | EC50 (human TLR2; hTLR2 reporter gene assay, read-out: EC50 in engaging hTLR2): 3.6 nM; remark beside the EC50 (potency) (human TLR2; [3]): Low potency; water solubility (Aqueous solubility): water-soluble; agonistic activity in mTLR2 / specificity for hTLR2 (murine TLR2): activating human TLR2 (hTLR2), but not murine TLR2 (mTLR2); also recorded: entirely inactive
CCCCCCCCCCCCCCCCCC(=O)OCCSC[C@H](N)C(=O)N[C@@H](CO)C(=O)OC [Compound 6e, 2-(((R)-2-amino-3-(((S)-3-hydroxy-1-methoxy-1-oxopropan-2-yl)amino)-3-oxopropyl)thio)ethyl stearate] | 4.79 nM | remark beside the EC50 (potency) (human TLR2; [3]): Low potency; agonistic activity in mTLR2 / specificity for hTLR2 (murine TLR2): entirely inactive
CCCCCCCCCCCCCCCC(=O)OCCSC[C@H](NC(C)=O)C(=O)N[C@@H](CCCCN)C(=O)OC [Compound 23, 2-(((R)-2-Acetamido-3-(((S)-6-amino-1-methoxy-1-oxohexan-2-yl)amino)-3-oxopropyl)thio)ethyl palmitate] | 0.225 nM | stability of aqueous stocks [1]: significant loss of activity of aqueous stocks within about a week; water solubility (Aqueous solubility): highly water soluble
CCCCCCCCCCCCCCCC(=O)OCCSC[C@H](NC(C)=O)C(=O)N[C@@H](COC(=O)[C@@H](N)CCCCN)C(=O)OC.Cl.Cl [Compound 25, 2-(((R)-2-Acetamido-3-(((S)-3-(((S)-2,6-diaminohexanoyl)oxy)-1-methoxy-1-oxopropan-2-yl)amino)-3-oxopropyl)thio)ethyl palmitate] | 6.81 nM | stability of aqueous stocks [1]: unstable; water solubility (Aqueous solubility): exceptionally water soluble; induction of anti-bovine α-lactalbumin IgG responses ([2]; rabbits, prime+single-boost model, FIG. 2): excellent induction
CCCCCCCCCCCCCCCC(=O)OCCSC[C@H](NC(C)=O)C(=O)N[C@@H](COS(=O)(=O)O)C(=O)OC [Compound 26, 2-(((R)-2-Acetamido-3-(((S)-1-methoxy-1-oxo-3-(sulfooxy)propan-2-yl)amino)-3-oxopropyl)thio)ethyl palmitate] | 7.1 nM | water solubility (Aqueous solubility): exceptionally water soluble
CCCCCCCCCCCCCCCC(=O)OCCSC[C@H](NC(C)=O)C(=O)N[C@@H](COC(=O)CCC(=O)O)C(=O)OC [Compound 27, (7S,10R)-10-Acetamido-7-(methoxycarbonyl)-4,9,16-trioxo-5,15-dioxa-12-thia-8-azahentriacontan-1-oic acid] | 0.518 nM | water solubility (Aqueous solubility): exceptionally water soluble
CCCCCCCCCCCCCCCC(=O)NCCSC[C@H](NC(C)=O)C(=O)N[C@@H](CO)C(=O)OC [Compound 34, (S)-Methyl 2-((R)-2-acetamido-3-((2-palmitamidoethyl)thio)propanamido)-3-hydroxypropanoate] | 11.8 nM | –
CCCCCCCCCCCCCCCCn1cc(CCSC[C@H](NC(C)=O)C(=O)N[C@@H](CO)C(=O)OC)nn1 [Compound 38, (S)-Methyl 2-((R)-2-acetamido-3-((2-(1-hexadecyl-1H-1,2,3-triazol-4-yl)ethyl)thio)propanamido)-3-hydroxypropanoate] | 641 nM | –
CCCCCCCCCCCCCc1cn(CCSC[C@H](NC(C)=O)C(=O)N[C@@H](CO)C(=O)OC)nn1 [Compound 41, (S)-Methyl 2-((R)-2-acetamido-3-((2-(4-tridecyl-1H-1,2,3-triazol-1-yl)ethyl)thio)propanamido)-3-hydroxypropanoate] | 260 nM | –
CCCCCCCCCCCCCCCCNC(=O)OCCSC[C@H](NC(C)=O)C(=O)N[C@@H](CO)C(=O)OC [Compound 45, (2S,5R)-Methyl 5-acetamido-2-(hydroxymethyl)-4,11-dioxo-10-oxa-7-thia-3,12-diazaoctacosan-1-oate] | 0.323 nM | –
CCCCCCCCCCCCCCCCOC(=O)NCCSC[C@H](NC(C)=O)C(=O)N[C@@H](CO)C(=O)OC [Compound 48, (2S,5R)-Methyl 5-acetamido-2-(hydroxymethyl)-4,11-dioxo-12-oxa-7-thia-3,10-diazaoctacosan-1-oate] | 0.0615 nM | –
CCCCCCCCCCCCCCCCOC(=O)NCCSC[C@H](NC(C)=O)C(=O)N[C@@H](CO)C(=O)NCCCN(C)C [Compound 52, Hexadecyl ((8S,11R)-11-acetamido-8-(hydroxymethyl)-2-methyl-7,10-dioxo-13-thia-2,6,9-triazapentadecan-15-yl)carbamate] | 0.279 nM | water solubility (Aqueous solubility): restored
CCCCCCCCCCCCCCCCOC(=O)NCCSC[C@H](NC(C)=O)C(=O)N[C@@H](CO)C(=O)NCc1ccc(Cn2c(CCCC)nc3c(N)nc4ccccc4c32)cc1 [Compound 54, Hexadecyl(2-(((R)-2-acetamido-3-(((S)-1-((4-((4-amino-2-butyl-1H-imidazo[4,5-c]quinolin-1-yl)methyl)benzyl)amino)-3-hydroxy-1-oxopropan-2-yl)amino)-3-oxopropyl)thio)ethyl)carbamate] | 221 nM | hTLR2-agonistic activity in words (human TLR2; hTLR2 reporter gene assay): less active than their parent compounds; activity in TLR7 cell line (TLR7): less active than their parent compounds
CCCCCCCCCCC[C@@H](O)CC(=O)OCCSC[C@H](NC(C)=O)C(=O)N[C@@H](CO)C(=O)OC [Compound 65] | 1.13 nM | –
CCCCCCCCCCC[C@H](CC(=O)OCCSC[C@H](NC(C)=O)C(=O)N[C@@H](CO)C(=O)OC)OC=O [Compound 66] | 0.808 nM | –
CCCCCCCCCCC[C@H](CC(=O)OCCSC[C@H](NC(C)=O)C(=O)N[C@@H](CO)C(=O)OC)OC(C)=O [Compound 82] | 0.182 nM | –
CCCCCCCCCCC[C@H](CC(=O)OCCSC[C@H](NC(C)=O)C(=O)N[C@@H](CO)C(=O)OC)OC(=O)CCC [Compound 83] | 0.345 nM | –
CCCCCCCCCCC[C@H](CC(=O)OCCSC[C@H](NC(C)=O)C(=O)N[C@@H](CO)C(=O)OC)OC(=O)CCCCC [Compound 84] | 1.5 nM | –
CCCCCCCCCCC[C@H](CC(=O)OCCSC[C@H](NC(C)=O)C(=O)N[C@@H](CO)C(=O)OC)OC(=O)CCCCCCC [Compound 85] | 3.08 nM | –
CCCCCCCCCCC[C@H](CC(=O)OCCSC[C@H](NC(C)=O)C(=O)N[C@@H](CO)C(=O)OC)OC(=O)CCCCCCCCC [Compound 86] | 12.9 nM | –
CCCCCCCCCCCC(=O)O[C@H](CCCCCCCCCCC)CC(=O)OCCSC[C@H](NC(C)=O)C(=O)N[C@@H](CO)C(=O)OC [Compound 87] | 20.7 nM | –
CCCCCCCCCCCCCC(=O)O[C@H](CCCCCCCCCCC)CC(=O)OCCSC[C@H](NC(C)=O)C(=O)N[C@@H](CO)C(=O)OC [Compound 88] | 9.52 nM | –
CCCCCCCCCCCCCCCC(=O)O[C@H](CCCCCCCCCCC)CC(=O)OCCSC[C@H](NC(C)=O)C(=O)N[C@@H](CO)C(=O)OC [Compound 89] | 4.78 nM | –
PAM2CSK4 [reference compound] | – | adjuvanticity ([2]; New Zealand White rabbits, direct comparison with glucopyranosyl lipid A): highly adjuvantic

Reference: patent US9676818B2, “Toll-like receptor 2-agonistic lipopeptides, and method of making the same” (University of Kansas, priority 2013, dated 2017)
